Reference: paper PMC6091245, “Genome-Wide Identification and Expression Analysis of Cutinase Gene Family in Rhizoctonia cerealis and Functional Study of an Active Cutinase RcCUT1 in the Fungal–Wheat Interaction” (Frontiers in Microbiology, 2018)

Target: T1, RcCUT1 (MBP-RcCUT1) (Ceratobasidium cereale, UniProt A0A346Q044)
T1 construct: E. coli BL21 (DE3); amylose resin; about 63 kDa on SDS-PAGE
Test: spectrophotometric p-nitrophenol release at […] nm
Assay type: biochemical
Conditions: 1 mM substrate; 20 mM Tris-HCl, 10 mM NaCl, 50 mM sodium taurodeoxycholate, pH 8.0, 20 °C; MBP-tag alone inactive

T1 sequence (A0A346Q044 entry or part of it): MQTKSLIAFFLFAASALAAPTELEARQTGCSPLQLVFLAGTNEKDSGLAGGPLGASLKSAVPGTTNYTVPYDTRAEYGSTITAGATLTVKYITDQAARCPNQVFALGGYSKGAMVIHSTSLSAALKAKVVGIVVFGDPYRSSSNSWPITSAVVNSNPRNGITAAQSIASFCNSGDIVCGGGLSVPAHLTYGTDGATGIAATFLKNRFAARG

Compound: CCCC(=O)Oc1ccc([N+](=O)[O-])cc1 [p-nitrophenyl butyrate]
- spectrophotometric p-nitrophenol release at 405 nm: the purified MBP-RcCUT1 had the enzymatic activity for hydrolyzing pNPB substrate
